In EP0521692A2, “Inhibition of tumor cell metastasis potential and invasiveness by chemically-defined oligosaccharides, their derivatives, mimetics and antibodies directed to them” (The Biomembrane Institute, priority 1991, dated 1993):

Columns and labels:
[1] = test system: BL6 clone of B16 melanoma cell line; experiment: Lung colony formation after i.v. injection of BL6 cells preincubated with oligosaccharide; type: in vivo, C57/BL mice; details: for total colony number reduced to % of control value: second independent series (Figure 1): preincubation with 0.1 M, 2 x 10^4 cells i.v., counted at 21 days; for reductions of metastatic colonies in lung: BL6 cells preincubated with the sugar, then intravenous injection, 0.1 M, 37°C, 10 minutes in the majority of experiments
Description: The highly metastatic BL6 clone of B16 melanoma cell line was obtained originally from Dr. Jean Starkey (Montana State Univ., Bozeman, MT), and clones were reselected in syngeneic C57/BL mice according to their metastatic potential. C57/BL mice were maintained in plastic cages under filtered air atmosphere and provided with water and food pellets ad lib. Cells were cultured in RPMI 1640 supplemented with 2 mM glutamine and 10% fetal calf serum (FCS), and detached with phosphate buffered saline (PBS) containing 2 mM EDTA. Viability was tested by trypan blue exclusion test.
A suspension of BL6 cells (1-3 x 10⁶ cells/ml RPMI 1640 medium) was prepared and aliquots were incubated in the presence or absence of various oligosaccharides at various concentrations, at 37°C for 5-10 minutes. Following incubation, typically, 3 x 10⁴ or 2 x 10⁴ cells (with or without oligosaccharide pretreatment) per 200 µl were injected via tail vein into 8-week-old female mice. After 18-21 days, mice were killed, lungs were fixed in 10% formaldehyde in PBS (pH 7.4), and tumor cell colonies were counted under a dissecting microscope, thus providing background values of metastatic melanoma colony number in lung under these conditions. Data on number and size of colonies were statistically treated by the analysis of variance (ANOVA) procedure. Colonies with a diameter of 1 mm or greater were considered large-size and those with a diameter less than 1 mm were considered small-size.
(§1) For one experiment, BL6 cells were incubated with various concentrations of lactose, lacto-N-tetrose (Galβ1→3GlcNAcβl→3Galβ1→4GLc), methyl β-D-lactoside, or phenyl β-D-thiolactoside for various durations. In the majority of experiments, a concentration of 0.1 M was used and cells were incubated at 37°C for 10 minutes, separated from sugar-containing medium by mild centrifugation at 400 x g for 10 minutes, resuspended in RPMI 1640, and injected (3 x 10⁴ cells in 0.2 ml suspension) via tail vein. For some experiments, 2 x 10⁴ cells were injected and colonies were counted at 21 days. Viability and cell growth ability of BL6 cells after incubation in various sugar solutions were tested by trypan blue exclusion test, and by plating in RPMI 1640 culture under normal conditions in vitro, as well as by subcutaneous inoculation in age-matched C57/BL mice in order to test tumor growth.

[2] = test system: B16 melanoma cells; experiment: Lung colony formation, oligosaccharide injected i.p. before i.v. inoculation of tumor cells; type: in vivo, C57/BL mice; details: 1 ml of 0.25 M or 0.5 M i.p., 10 minutes before i.v. B16 melanoma cells; colonies counted 19 days later (Figure 2)
Description: Figure 2 graphically illustrates the effect of prior administration of methyl β-D-lactoside on the number and size of lung colony deposits of BL6 cells. Methyl β-D-lactoside (1 ml dosage) was injected intraperitoneally into C57/BL mice. After 10 minutes, B16 melanoma cells were injected intravenously. Lung colonies were counted and sized at 19 days. Group A represents control animals (not administered methyl β-D-lactoside) and groups B and C represent animals injected with 0.25 M and 0.5 M methyl β-D-lactoside, respectively. For each group, column 1 represents the total number of colonies, column 2 the number of colonies with diameter > 1 mm, and column 3 the number of colonies with diameter < 1 mm. Number of experiments is expressed as "n".
In a separate experiment, the effect of methyl β-D-lactoside on melanoma cell metastasis was determined after administration of the oligosaccharide, followed by inoculation with tumor cells. Specifically, a one ml dosage of methyl β-D-lactoside (at a concentration of 0.25 M or 0.5 M) was injected intraperitoneally in mice. After 10 minutes, B16 melanoma cells were injected intravenously. Lung colonies were counted 19 days later.

[3] = test system: BL6 cells; experiment: In vitro cell growth and thymidine incorporation after incubation with sugar; type: cell-based, mouse
Description: as §1

[4] = test system: melanoma cell (BL6) adhesion on endothelial cells (HuVEC); experiment: Melanoma cell adhesion on endothelial cells; type: cell-based, mouse; details: Figure 5
Description: (§2) Figure 5 graphically illustrates the melanoma cell (BL6) adhesion on LacCer (Panel A) and on endothelial cells (HuVEC) (Panel B) are inhibited by LacCer and GM3.
GM3 interacts with LacCer, which is highly expressed on endothelial cells. The order of adhesion of the B16 variants onto LacCer-coated solid phase or onto endothelial cells was also in the same order as their metastatic potential. In contrast, integrin-dependent adhesion of the B16 variants was approximately equal for BL6, F10, and F1 (see Figure 4).

[5] = target: T1, GMP-140 (Homo sapiens, UniProt P16109); experiment: Binding of platelets to fluorescent polystyrene beads coated with GSL (flow cytometry); details: for Binding index, Ratio (Activated/ Non-activated): ratio of binding index of activated to non-activated platelets; for Binding index, Activated platelets: thrombin-activated platelets, GSL-coated sulfate-containing polystyrene beads, MFI relative to non-GSL-coated beads, means of four experiments
T1 sequence (P16109 42-830): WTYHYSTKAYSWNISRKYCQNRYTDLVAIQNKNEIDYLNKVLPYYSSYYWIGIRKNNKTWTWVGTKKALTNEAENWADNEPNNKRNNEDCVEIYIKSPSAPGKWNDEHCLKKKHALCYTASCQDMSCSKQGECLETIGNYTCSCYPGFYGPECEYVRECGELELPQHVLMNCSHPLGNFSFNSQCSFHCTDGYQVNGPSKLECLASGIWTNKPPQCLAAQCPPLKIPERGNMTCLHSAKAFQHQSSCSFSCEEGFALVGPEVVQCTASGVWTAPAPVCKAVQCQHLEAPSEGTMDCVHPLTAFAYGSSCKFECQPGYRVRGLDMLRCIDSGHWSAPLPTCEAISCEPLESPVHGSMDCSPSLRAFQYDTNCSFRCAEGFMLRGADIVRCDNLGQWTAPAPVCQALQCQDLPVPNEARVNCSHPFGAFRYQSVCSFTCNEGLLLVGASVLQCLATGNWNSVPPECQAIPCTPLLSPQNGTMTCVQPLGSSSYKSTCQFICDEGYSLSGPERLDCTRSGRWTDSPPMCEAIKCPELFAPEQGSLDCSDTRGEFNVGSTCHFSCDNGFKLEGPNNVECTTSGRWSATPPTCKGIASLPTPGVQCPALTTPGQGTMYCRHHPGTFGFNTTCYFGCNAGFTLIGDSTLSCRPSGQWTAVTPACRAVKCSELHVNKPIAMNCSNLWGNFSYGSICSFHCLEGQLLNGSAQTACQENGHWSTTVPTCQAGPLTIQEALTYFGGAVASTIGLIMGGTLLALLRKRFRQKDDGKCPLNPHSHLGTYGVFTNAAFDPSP
Description: Fluorescent plastic (e.g. polystyrene) beads (diameter ≈ 0.5 µm) are coated with GSL. GSLs are known to be strongly adsorbed on such beads, which allows construction of fluorescent probes containing specific GSLs. Platelets (activated or non-activated) are incubated with such GSL-coated beads, followed by determination of platelet fluorescence intensity by flow cytometry.
Platelets were isolated from"platelet-rich plasma"obtained from the Oregon Red Cross (Portland, OR), and contaminating red blood cells were removed by centrifugation at 80xg for 10 min. Platelets were centrifuged at 300xg for 10 min, and suspended in Tyrode's buffer (pH 6.5) containing 22 mM citrate buffer with 0.35% bovine serum albumin (BSA). Platelet suspension (1x10⁸/ml) was incubated (pH 7.2, 37°C, 5 min) after addition of thrombin (final concentration 1 U/ml). The mixture was then incubated at 37°C for 10 min without stirring. Thrombin-activated platelets were fixed with an equal volume of 2% formaldehyde in phosphate-buffered saline (PBS), pH 7.2, and washed 2x with PBS containing 1% BSA.
Activated and non-activated platelets were fixed with paraformaldehyde in Ca²⁺-free PBS, pH 7.2, washed 2x with Ca^2a+-containing PBS with 1% BSA, resuspended in CA^2a+-PBS with 1% BSA and 0.1% azide, and the number of platelets adjusted to ≈1x10⁹/ml. The cell suspension was stored at 4°C and the binding assay performed within 24 hr.
Fluorescent polystyrene latex beads were obtained from Molecular Probe, Inc., Eugene, OR. They were yellow-green fluorescent beads with a sulfate group at the surface, diameter ≈0.5 µm (actually 0.486 µm). 1x10⁹ beads in 30 µl ETOH were added to 10 µg of GSL solution in 200 µl C=M, mixed well, and dried under an N₂ stream. The residue was resuspended in 200 µl ethanol, sonicated briefly, and dried under an N₂ stream. […]
20 µl of platelet (non-activated or activated) suspension ... paraformaldehyde-fixed -- containing ≈2x10⁷ platelets was mixed with 10 µl of fluorescent GSL-coated beads -- containing ≈2x10⁷ beads, mixed well, […] allowed to stand at 37°C for 30 min. The platelet suspension was mixed with 200 µl Ca²⁺-PBS and analyzed by flow cytometry (EPICS Profile, Coulter Cytometry, Hialeath, FL).
Flow cytometric analyses of platelets alone and beads alone were performed for a gating set to include most signals produced by platelets by excluding signals produced by free beads. The binding index (BI) was calculated as mean fluorescence intensity (MFI) of platelets incubated with fluorescent GSL-coated beads, divided by MFI of platelets incubated with fluorescent non-GSL-coated (control) beads. […]

[6] = test system: melanoma cell (BL6) adhesion on LacCer; experiment: Melanoma cell adhesion on LacCer-coated solid phase; type: cell-based, mouse; details: Figure 5, Panel A
Description: Figure 4 graphically illustrates that melanoma cell adhesion on LacCer is based on GM3-LacCer interaction. The order of metastatic potential is BL6>F10>F1>>WA4.
as §2

| Molecule | total colony number reduced to % of control value [1] [%] | effect on cell number increase [3] | effect on thymidine incorporation [3] | Binding index, Ratio (Activated/ Non-activated) [5] | Binding index, Activated platelets [5] | reductions of metastatic colonies in lung [1] [%] | also measured |
| --- | --- | --- | --- | --- | --- | --- | --- |
| CO[C@@H]1O[C@H](CO)[C@@H](O[C@@H]2O[C@H](CO)[C@H](O)[C@H](O)[C@H]2O)[C@H](O)[C@H]1O [methyl β-D-lactoside] | 35 | slight in vitro stimulatory effect | slight in vitro stimulatory effect |  |  |  | reduction of metastatic lung colony number compared to control ([1]; BL6 cells treated with 0.005 M): 8%; reduction of metastatic lung colony number compared to control ([1]; BL6 cells treated with 0.01 M): 16%; reduction of metastatic lung colony number compared to control ([1]; BL6 cells treated with 0.1 M): 43%; lung metastatic colony formation [2]: significant reduction; B16 melanoma adhesion on endothelial cells [4]: inhibited |
| NeuAcα2→3Galβ1→4GlcNAcβ1→3Galβ1→R [SPG, reference compound] |  |  |  | 0.7 ± 0.2 | 0.8 ± 0.2 |  |  |
| NeuAcα2→3Galβl→4Glcβl→Cer [GM3] |  |  |  | 0.7 ± 0.5 | 1.0 ± 0.1 |  | melanoma cell (BL6) adhesion on LacCer [6]: inhibited |
| CC(=O)N[C@H]1[C@H](O[C@H]2[C@@H](O)[C@@H](CO)O[C@@H](O[C@H]3[C@H](O)[C@@H](O)C(O)O[C@@H]3CO)[C@@H]2O)O[C@H](CO)[C@@H](O)[C@@H]1O[C@@H]1O[C@H](CO)[C@H](O)[C@H](O)[C@H]1O (stereo partly drawn) [lacto-N-tetrose, Galβ1→3GlcNAcβl→3Galβl→4Glc] |  |  |  |  |  | 36 |  |
| OC[C@H]1O[C@@H](O[C@H]2[C@H](O)[C@@H](O)[C@H](Sc3ccccc3)O[C@@H]2CO)[C@H](O)[C@@H](O)[C@H]1O [phenyl β-D-thiolactoside] | 50 | slight in vitro stimulatory effect | slight in vitro stimulatory effect |  |  |  |  |
| OC[C@H]1O[C@@H](O[C@H]2[C@H](O)[C@@H](O)C(O)O[C@@H]2CO)[C@H](O)[C@@H](O)[C@H]1O (stereo partly drawn) [Lactose] |  |  |  |  |  | 26 |  |
